Our source for the IC50 and Ki values is patent US8772480B2, “Inhibitors of PI3 kinase and/or mTOR” (priority 2009, dated 2014).

Like-named read-outs stand apart in the source and are kept apart here.

The test system of experiment [1] is phosphorylation of Akt at Serine 473 in U87 MG cells. The experiment can be described thus: cells. The note with it: Homo sapiens, U-87 MG, 2 h.
Experiment [2] addresses PI3Kα (Homo sapiens (Human), UniProt P42336). The note with it: read-out: PI3Kα AlphaScreen ® Ki. (In Alpha technology, singlet oxygen from a donor bead excites a nearby acceptor bead.)
Setting [3] is: read-out: U87Cell IC50, pAkt (Ser 473), U87 MG cells, two hours with compound.

Chain of PI3Kα (P42336 whole entry): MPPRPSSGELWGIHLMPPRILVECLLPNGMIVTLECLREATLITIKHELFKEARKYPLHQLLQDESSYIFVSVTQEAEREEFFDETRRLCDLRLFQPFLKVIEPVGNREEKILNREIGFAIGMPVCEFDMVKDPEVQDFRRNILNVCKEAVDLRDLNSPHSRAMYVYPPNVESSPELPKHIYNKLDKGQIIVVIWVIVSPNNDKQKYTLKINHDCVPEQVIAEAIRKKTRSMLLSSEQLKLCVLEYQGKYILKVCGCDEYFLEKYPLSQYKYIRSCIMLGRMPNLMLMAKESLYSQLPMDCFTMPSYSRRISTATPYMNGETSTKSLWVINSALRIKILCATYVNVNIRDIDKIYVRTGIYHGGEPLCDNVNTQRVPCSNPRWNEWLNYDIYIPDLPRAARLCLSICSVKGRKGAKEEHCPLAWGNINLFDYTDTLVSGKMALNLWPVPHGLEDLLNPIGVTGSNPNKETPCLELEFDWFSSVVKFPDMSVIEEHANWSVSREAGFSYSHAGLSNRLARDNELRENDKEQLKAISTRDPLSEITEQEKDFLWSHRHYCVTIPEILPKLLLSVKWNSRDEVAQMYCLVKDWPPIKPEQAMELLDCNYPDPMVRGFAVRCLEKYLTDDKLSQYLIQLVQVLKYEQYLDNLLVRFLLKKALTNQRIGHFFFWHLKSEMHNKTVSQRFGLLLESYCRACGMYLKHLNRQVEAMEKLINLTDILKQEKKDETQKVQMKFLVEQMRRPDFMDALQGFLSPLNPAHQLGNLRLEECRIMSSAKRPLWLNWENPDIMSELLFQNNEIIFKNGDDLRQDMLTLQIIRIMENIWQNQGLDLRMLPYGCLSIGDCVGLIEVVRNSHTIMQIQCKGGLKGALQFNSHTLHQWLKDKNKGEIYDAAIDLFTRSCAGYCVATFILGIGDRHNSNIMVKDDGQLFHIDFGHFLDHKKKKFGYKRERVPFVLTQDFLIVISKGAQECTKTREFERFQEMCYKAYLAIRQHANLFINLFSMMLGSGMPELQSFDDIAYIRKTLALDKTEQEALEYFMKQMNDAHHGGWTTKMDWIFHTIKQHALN
Chain of PI3Kα (P27986 whole entry partner): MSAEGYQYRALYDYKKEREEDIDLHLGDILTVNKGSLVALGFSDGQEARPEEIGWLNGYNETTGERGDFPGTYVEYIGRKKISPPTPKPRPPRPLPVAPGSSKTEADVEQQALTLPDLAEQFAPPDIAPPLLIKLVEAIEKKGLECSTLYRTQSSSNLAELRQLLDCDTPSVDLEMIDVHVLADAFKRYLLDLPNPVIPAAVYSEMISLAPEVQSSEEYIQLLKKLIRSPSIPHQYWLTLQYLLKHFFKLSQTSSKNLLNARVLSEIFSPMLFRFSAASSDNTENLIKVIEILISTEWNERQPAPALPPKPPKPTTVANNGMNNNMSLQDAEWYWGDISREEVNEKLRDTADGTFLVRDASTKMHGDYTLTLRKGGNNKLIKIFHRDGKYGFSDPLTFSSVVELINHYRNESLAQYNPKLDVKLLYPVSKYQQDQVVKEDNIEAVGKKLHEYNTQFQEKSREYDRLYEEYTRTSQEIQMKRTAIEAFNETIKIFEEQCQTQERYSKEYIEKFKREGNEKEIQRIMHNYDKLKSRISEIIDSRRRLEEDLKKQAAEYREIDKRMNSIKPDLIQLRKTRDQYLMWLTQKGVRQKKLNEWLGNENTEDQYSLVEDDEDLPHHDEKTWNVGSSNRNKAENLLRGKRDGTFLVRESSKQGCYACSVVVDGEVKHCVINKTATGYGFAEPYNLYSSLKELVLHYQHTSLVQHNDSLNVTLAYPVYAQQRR

Consider `COc1ncc(Nc2ncc(C(C)N3CCN(S(C)(=O)=O)CC3)nc2-c2cc(N)nc(C)n2)cc1F` (stereo not shown) [Example 283, 6-(3-(5-Fluoro-6-Methoxypyridin-3-Ylamino)-6-(1-(4-(Methylsulfonyl)Piperazin-1-yl)Ethyl)Pyrazin-2-yl)-2-Methylpyrimidin-4-Amine], for which the IC50 (commonly the concentration that inhibits the measured activity by half) in experiment [1] (setting [3]) is 4 nM. In experiment [2], the inhibitory constant (Ki) (as a rule, the equilibrium dissociation constant of an inhibitor or competing ligand from its target) was found to be 3 nM.

Take `COc1ncc(Nc2ncc(C(C)(C)O)nc2-c2cc(N)nc(C)n2)cc1F` [Example 284, 2-(6-(6-Amino-2-Methylpyrimidin-4-yl)-5-(5-Fluoro-6-Methoxypyridin-3-Ylamino)Pyrazin-2-yl)Propan-2-ol]: in experiment [1] (setting [3]), the IC50 was determined as 63 nM. For the same molecule, the inhibitory constant (Ki) in experiment [2] stood at 31 nM.

In the case of `COc1ccc(Nc2ncc(C(C)=O)nc2-c2cc(N)nc(C)n2)cn1` [Example 285, 1-(6-(6-Amino-2-Methylpyrimidin-4-yl)-5-(6-Methoxypyridin-3-Ylamino)Pyrazin-2-yl)Ethanone], the IC50 in experiment [1] (setting [3]) was more than 10000 nM. Further, the inhibitory constant (Ki) in experiment [2] came to 103 nM.

With `COc1ccc(Nc2ncc(C(C)N3CCN(S(C)(=O)=O)CC3)nc2-c2cc(N)nc(C)n2)cn1` (stereo not shown) [Example 286, 6-(3-(6-Methoxypyridin-3-Ylamino)-6-(1-(4-(Methylsulfonyl)Piperazin-1-yl)Ethyl)Pyrazin-2-yl)-2-Methylpyrimidin-4-Amine], the IC50 in experiment [1] (setting [3]) turned out to be 111 nM. For the same molecule, the Ki in experiment [2] was found to be 11 nM.

Take `Cc1nc(N)nc(-c2cc([C@@H](C)N3CCN(S(C)(=O)=O)CC3)cnc2Nc2cc(F)c3cccnc3c2)n1` [Example 287, (R)—N-(3-(4-Amino-6-Methyl-1,3,5-Triazin-2-yl)-5-(1-(4-(Methylsulfonyl)Piperazin-1-yl)Ethyl)Pyridin-2-yl)-5-Fluoroquinolin-7-Amine]: the half-maximal inhibitory concentration (IC50) in experiment [1] (setting [3]) amounted to 204 nM. For the same molecule, in experiment [2], the Ki stood at 20 nM.

`Cc1nc(N)nc(-c2cc(C(C)N3CCOCC3)cnc2Nc2ccc3scnc3c2)n1` (stereo not shown) [Example 288, N-(3-(4-Amino-6-Methyl-1,3,5-Triazin-2-yl)-5-(1-Morpholinoethyl)Pyridin-2-yl)Benzo[D]Thiazol-5-Amine]: the half-inhibitory concentration (IC50) in experiment [1] (setting [3]) was 33 nM. For the same molecule, in experiment [2], the Ki was 45 nM.

With `Cc1nc(N)nc(-c2cc(C(C)N3CCN(C(=O)N(C)C)CC3)cnc2Nc2ccc3scnc3c2)n1` (stereo not shown) [Example 289, 4-(1-(5-(4-Amino-6-Methyl-1,3,5-Triazin-2-yl)-6-(Benzo[D]Thiazol-5-Ylamino)Pyridin-3-yl)Ethyl)-N,N-Dimethylpiperazine-1-Carboxamide], the IC50 in experiment [1] (setting [3]) worked out at 111 nM. In addition, the inhibition constant (Ki) in experiment [2] was 60 nM.

For `Cc1nc(N)nc(-c2cc(C(C)N3CCN(S(C)(=O)=O)CC3)cnc2Nc2ccc3scnc3c2)n1` (stereo not shown) [Example 290, N-(3-(4-Amino-6-Methyl-1,3,5-Triazin-2-yl)-5-(1-(4-(Methylsulfonyl)Piperazin-1-yl)Ethyl)Pyridin-2-yl)Benzo[D]Thiazol-5-Amine], the IC50 in experiment [1] (setting [3]) was 45 nM. In experiment [2], the Ki amounted to 24 nM.

For `Cc1nc(N)nc(-c2cc([C@@H](C)N3CCN(S(C)(=O)=O)C[C@@H]3C)cnc2Nc2ccc3scnc3c2)n1` [Example 293, N-(3-(4-Amino-6-Methyl-1,3,5-Triazin-2-yl)-5-((R)-1-((S)-2-Methyl-4-(Methylsulfonyl)Piperazin-1-yl)Ethyl)Pyridin-2-yl)Benzo[D]Thiazol-5-Amine], the 50% inhibitory concentration (IC50) in experiment [1] (setting [3]) was 24 nM. In experiment [2], the Ki was determined as 4 nM.

Consider `COc1ncc(Nc2ncc(C(C)N3CCN(C(=O)N(C)C)CC3)cc2-c2nc(C)nc(N)n2)cc1F` (stereo not shown) [Example 294, 4-(1-(5-(4-Amino-6-Methyl-1,3,5-Triazin-2-yl)-6-(5-Fluoro-6-Methoxypyridin-3-Ylamino)Pyridin-3-yl)Ethyl)-N,N-Dimethylpiperazine-1-Carboxamide], for which the half-inhibitory concentration (IC50) in experiment [1] (setting [3]) was 90 nM. Further, the inhibition constant (Ki) in experiment [2] worked out at 12 nM.

On to `COc1ncc(Nc2ncc([C@@H](C)N3CCN(S(C)(=O)=O)C[C@@H]3C)cc2-c2nc(C)nc3[nH]cnc23)cc1F` [Example 295, N-(5-Fluoro-6-Methoxypyridin-3-yl)-5-((R)-1-((S)-2-Methyl-4-(Methylsulfonyl)Piperazin-1-yl)Ethyl)-3-(2-Methyl-9H-Purin-6-yl)Pyridin-2-Amine], for which the IC50 in experiment [1] (setting [3]) stood at 6 nM. The Ki in experiment [2] is 3 nM.

As for `COc1ncc(Nc2ncc([C@H](C)N3CCN(S(C)(=O)=O)C[C@@H]3C)cc2-c2nc(C)nc3[nH]cnc23)cc1F` [Example 296, N-(5-Fluoro-6-Methoxypyridin-3-yl)-5-((S)-1-((S)-2-Methyl-4-(Methylsulfonyl)Piperazin-1-yl)Ethyl)-3-(2-Methyl-9H-Purin-6-yl)Pyridin-2-Amine], the IC50 in experiment [1] (setting [3]) came out at 51 nM. In addition, the Ki in experiment [2] is 18 nM.

As for `COc1ncc(Nc2ncc([C@@H](C)N3CCN(S(C)(=O)=O)CC3)cc2-c2nc(C)nc3[nH]cnc23)cc1F` [Example 297, (R)—N-(5-Fluoro-6-Methoxypyridin-3-yl)-3-(2-Methyl-9H-Purin-6-yl)-5-(1-(4-(Methylsulfonyl)Piperazin-1-yl)Ethyl)Pyridin-2-Amine], in experiment [1] (setting [3]), the concentration for half-maximal inhibition (IC50) was found to be 9 nM. The inhibitory constant (Ki) in experiment [2] stood at 1 nM.

Regarding `COc1ncc(Nc2ncc(C3(O)CC3)cc2-c2nc(C)nc(N)n2)cc1F` [Example 298, 1-(5-(4-Amino-6-Methyl-1,3,5-Triazin-2-yl)-6-(5-Fluoro-6-Methoxypyridin-3-Ylamino)Pyridin-3-yl)Cyclopropanol], the IC50 in experiment [1] (setting [3]) came to 23 nM. The inhibition constant (Ki) in experiment [2] amounted to 4 nM.

Regarding `COc1ncc(Nc2ncc(C(C)NC(C)C)cc2-c2nc(C)nc(N)n2)cc1F` (stereo not shown) [Example 299, 4-(2-(5-Fluoro-6-Methoxypyridin-3-Ylamino)-5-(1-(Isopropylamino)Ethyl)Pyridin-3-yl)-6-Methyl-1,3,5-Triazin-2-Amine], the concentration for half-maximal inhibition (IC50) in experiment [1] (setting [3]) is 45 nM. Moreover, the inhibition constant (Ki) in experiment [2] worked out at 61 nM.

Turning to `COc1ncc(Nc2ncc(C3(N)CC3)cc2-c2nc(C)nc(N)n2)cc1F` [Example 300, 4-(5-(1-Aminocyclopropyl)-2-(5-Fluoro-6-Methoxypyridin-3-Ylamino)Pyridin-3-yl)-6-Methyl-1,3,5-Triazin-2-Amine], the 50% inhibitory concentration (IC50) in experiment [1] (setting [3]) came out at 17 nM. The Ki in experiment [2] is 74 nM.

Consider `CCC(N)(CC)c1cnc(Nc2cnc(OC)c(F)c2)c(-c2nc(C)nc(N)n2)c1` [Example 301, 4-(5-(3-Aminopentan-3-yl)-2-(5-Fluoro-6-Methoxypyridin-3-Ylamino)Pyridin-3-yl)-6-Methyl-1,3,5-Triazin-2-Amine], for which, in experiment [1] (setting [3]), the IC50 amounted to 70 nM. Further, the inhibitory constant (Ki) in experiment [2] was 110 nM.

As to `COc1ncc(Nc2ncc([C@@H](C)N3CCN(S(C)(=O)=O)CC3)cc2-c2nc(C)nc(N)n2)cc1C(C)C` [Example 302, (R)-4-(2-(5-Isopropyl-6-Methoxypyridin-3-Ylamino)-5-(1-(4-(Methylsulfonyl)Piperazin-1-yl)Ethyl)Pyridin-3-yl)-6-Methyl-1,3,5-Triazin-2-Amine], the IC50 in experiment [1] (setting [3]) stood at 203 nM. The inhibition constant Ki in experiment [2] came to 24 nM.

Consider `CCS(=O)(=O)c1cnc(Nc2cnc(OC)c(F)c2)c(-c2nc(C)nc(N)n2)c1` [Example 303, 4-(5-(ethylsulfonyl)-2-(5-fluoro-6-methoxypyridin-3-ylamino)pyridin-3-yl)-6-methyl-1,3,5-triazin-2-amine], for which the IC50 in experiment [1] (setting [3]) was more than 10000 nM. Besides, the inhibitory constant (Ki) in experiment [2] is 807 nM.

As for `Cc1nc(N)cc(-c2cccnc2Nc2cnc(Cl)c(NS(C)(=O)=O)c2)n1` [Example 304, N-(5-((3-(6-amino-2-methyl-4-pyrimidinyl)-2-pyridinyl)amino)-2-chloro-3-pyridinyl)methanesulfonamide], the IC50 in experiment [1] (setting [3]) was determined as 146 nM. The Ki in experiment [2] turned out to be 29 nM.

On to `COc1ncc(Nc2ncc([C@@H](C)N3CCN(S(C)(=O)=O)CC3)cc2-c2cc(N)nc(C)n2)cc1F` [Example 305, 6-(2-((5-fluoro-6-methoxy-3-pyridinyl)amino)-5-((1R)-1-(4-(methylsulfonyl)-1-piperazinyl)ethyl)-3-pyridinyl)-2-methyl-4-pyrimidinamine], for which the IC50 in experiment [1] (setting [3]) stood at 1 nM. Besides, the inhibitory constant (Ki) in experiment [2] is 2 nM.

Turning to `COc1ncc(Nc2ncc([C@@H](C)N3CCN(S(C)(=O)=O)C[C@@H]3C)cc2-c2cc(N)nc(C)n2)cc1F` [Example 306, 6-(2-((5-fluoro-6-methoxy-3-pyridinyl)amino)-5-((1R)-1-((2S)-2-methyl-4-(methylsulfonyl)-1-piperazinyl)ethyl)-3-pyridinyl)-2-methyl-4-pyrimidinamine], the concentration for half-maximal inhibition (IC50) in experiment [1] (setting [3]) came out at 3 nM. Further, the Ki in experiment [2] was 1 nM.

On to `Cc1nc(N)cc(-c2nccnc2Nc2cnc(Cl)c(NS(C)(=O)=O)c2)n1` [Example 307, N-(5-((3-(6-amino-2-methyl-4-pyrimidinyl)-2-pyrazinyl)amino)-2-chloro-3-pyridinyl)methanesulfonamide], for which, in experiment [1] (setting [3]), the concentration for half-maximal inhibition (IC50) is more than 10000 nM. Further, the inhibitory constant (Ki) in experiment [2] was determined as 260 nM.

Regarding `COc1ccc(Nc2ncc(C(C)N3CC(S(C)(=O)=O)C3)cc2-c2nc(C)nc(N)n2)cn1` (stereo not shown) [Example 308, 4-(2-(6-methoxypyridin-3-ylamino)-5-(1-(3-(methylsulfonyl)azetidin-1-yl)ethyl)pyridin-3-yl)-6-methyl-1,3,5-triazin-2-amine 2,2,2-trifluoroacetate], the IC50 in experiment [1] (read-out: U87Cell IC50) is 60 nM. The Ki in experiment [2] is 19 nM.

In the case of `Cc1nc(N)nc(-c2cc([C@@H](C)N3CCN(S(C)(=O)=O)CC3)cnc2Nc2ccc(Cl)nc2)n1` [Example 309, (R)-4-(2-(6-chloropyridin-3-ylamino)-5-(1-(4-(methylsulfonyl)piperazin-1-yl)ethyl)pyridin-3-yl)-6-methyl-1,3,5-triazin-2-amine], the 50% inhibitory concentration (IC50) in experiment [1] (setting [3]) is 46 nM. The Ki in experiment [2] amounted to 44 nM.

Regarding `Cc1nc(N)nc(-c2cc([C@@H](C)N3CCN(S(C)(=O)=O)CC3)cnc2Nc2ccc3cccnc3c2)n1` [Example 310, (R)—N-(3-(4-amino-6-methyl-1,3,5-triazin-2-yl)-5-(1-(4-(methylsulfonyl)piperazin-1-yl)ethyl)pyridin-2-yl)quinolin-7-amine 2,2,2-trifluoroacetate], in experiment [1] (read-out: U87Cell IC50), the half-inhibitory concentration (IC50) came out at 65 nM. Besides, in experiment [2], the Ki was 36 nM.
